Results from patent US20230220021A1, “CYCLIC PEPTIDE INHIBITORS OF PSD-95 AND USES THEREOF” (University of Copenhagen, priority 2020, published 2023).
Where a SMILES comes first, the peptide text is derived from it. The star is where a group is joined. 5TAMRA = CN(C)c1ccc2c(c1)Oc1cc(N(C)C)ccc1C21OC(=O)c2cc(C(=O)*)ccc21

Tests used:
[1] = target: T1, PSD-95-PDZ2 V229A (Homo sapiens, UniProt P78352, V229A); experiment: FP saturation assay against PSD-95-PDZ2 Ala mutant V229A; assay type: binding; details: V229A mutation; TAMRA probes
T1 construct: measured against recombinantly expressed PSD-95-PDZ2 Ala mutants in FP saturation experiments; 7xHis (N); made in house; host or cells: Escherichia coli B21 pLys
T1 sequence (P78352 160-246 limits assumed, stated change not applied): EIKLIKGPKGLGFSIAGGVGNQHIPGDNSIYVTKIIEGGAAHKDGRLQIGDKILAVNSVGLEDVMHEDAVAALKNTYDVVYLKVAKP
From the text: (§1) Protein expression. The pRSET plasmids encoding the (7× His)-PSD-95-PDZ2 wild type and (7× His)-PSD-95-PDZ2-V178C sequences were obtained as described previously.^38 The DNA constructs encoding the PSD-95-PDZ2 mutants (K165A, K168A, F172A, F1721, S173A, N180A, T192A, K193A, H225A, E226A, V229A K233A) were produced using Phusion® site-directed mutagenesis kit on the pRSET plasmid of the wild type PSD-95-PDZ2 and with the primers listed in Table 1. The PSD-95-PDZ2 mutants were transformed and expressed as previously described,^38 in Escherichia coli B21 pLys cells at 37° C. and 0.5 mM isopropyl-D-thiogalactopyranoside (IPTG). […] Protein concentration was measured by NanoDrop 1000 and mass determination of proteins was analyzed using an Agilent 6410 triple quadrupole LC-MS with a Poroshell column, 300SB-C18 2.1×75 mm in a linear gradient of 5% to 60% B, using a binary solvent system [A: H2O/MeCN/TFA, 94.9/5/0.1 and B: H2O/MeCN/TFA, 5/94.9/0.1] with a flow of 0.75 mL min^−1. […] The proteins were analyzed using the following gradient: from 5% to 60% B for 4 min. and from 60 to 100% B from 4 to 4.5 min.
(§2) Fluorescence polarization (FP). […] Fluorescence polarization was measured using a Safire 2 plate reader. […] Then, the polarization was fitted into a one-site binding model using Prism software 8.0 (GraphPad), from which the Kd can be measured. […]

[2] = target: T2, PSD-95-PDZ2 H225A (Homo sapiens, UniProt P78352, H225A); experiment: FP saturation assay against PSD-95-PDZ2 Ala mutant H225A; assay type: binding; details: H225A mutation; TAMRA probes
T2 construct: measured against recombinantly expressed PSD-95-PDZ2 Ala mutants in FP saturation experiments; 7xHis (N); made in house; host or cells: Escherichia coli B21 pLys
T2 sequence (P78352 160-246 limits assumed, stated change not applied): as the sequence (P78352 160-246 limits assumed, stated change not applied) above
From the text: as §1, §2

[3] = target: T3, PSD-95-PDZ2 K165A (Homo sapiens, UniProt P78352, K165A); experiment: FP saturation assay against PSD-95-PDZ2 Ala mutant K165A; assay type: binding; details: K165 mutation; TAMRA probes
T3 construct: measured against recombinantly expressed PSD-95-PDZ2 Ala mutants in FP saturation experiments; 7xHis (N); made in house; host or cells: Escherichia coli B21 pLys
T3 sequence (P78352 160-246 limits assumed, stated change not applied): as the sequence (P78352 160-246 limits assumed, stated change not applied) above
From the text: as §1, §2

[4] = system: HeLa cells stably expressing HaloGFP
From the text: To assess the cellular permeability and delivery to the cytosol of the compounds as defined herein, the cellular chloroalkane penetration assay (CAPA) may be used (Peraro et al. 2018). This assay takes advantage of a modified haloalkane dehalogenase designed to covalently bind chloroalkane (CA) molecules. A HeLa cell line expressing a fusion protein comprising a HaloTag, a green fluorescent protein (GFP) and a mitochondria-targeting peptide is used to report cytosolic delivery. […] Cells expressing the HaloTag enzyme are incubated with CA-tagged peptides. When these CA-peptides penetrate the cell membrane and reach the cytosol, they will bind to and react with the HaloTag (pulse step). Following a washing step, the cells are incubated with a CA-tagged dye that quantitatively penetrates the cell membrane and reacts with remaining unreacted HaloTag sites (chase step). Flow cytometry is used to measure the fluorescence intensity of the cells and the measured fluorescence is inversely proportional to the amount of CA-peptides that reach the penetrated the cells and can thus be used to assess cytosolic delivery. The obtained data is commonly expressed as CP50 values, the concentration at which 50% cell penetration is observed. […]

| Compound | fold loss in affinity (Kd mutant normalized to PSD-95-PDZ2 WT) [1] [fold] | fold decrease in affinity (Kd mutant normalized to PSD-95-PDZ2 WT) [2] [fold] | fold loss in affinity (Kd mutant normalized to PSD-95-PDZ2 WT) [3] [fold] | CP50 [4] [µM] |
| --- | --- | --- | --- | --- |
| CC[C@H](C)[C@H](NC(=O)[C@H](CO)NC(=O)[C@H](CO)NC(=O)[C@H](CC(C)C)NC(=O)[C@H](CCCCN)NC(=O)c1ccc2c(c1)C(=O)OC21c2ccc(N(C)C)cc2Oc2cc(N(C)C)ccc21)C(=O)N[C@@H](CCC(=O)O)C(=O)N[C@@H](CO)C(=O)N[C@@H](CC(=O)O)C(=O)N[C@H](C(=O)O)C(C)C [C-terminal GluN2B TAM RA probe] (5TAMRA-KLSSIESDV-OH; N-terminus assumed) | 2 | 5 | 5 |  |
| cyclo-(THLETTFTGDGTP(K-CA)TIRVTQpGQ) [SEQ ID NO: 427] |  |  |  | 31.1 ± 2.1 |
